Results taken from PubChem BioAssay AID248 (DTP/NCI, 2004).
Values joined by “and” are separate entries in the source; they are usually repeats but may differ in a detail not shown here. Equal entries are not always repeated. Toxic doses and inconclusive results are not listed. Cut-off read from the data, not from the text of the source: active = T/C of 150% or more; inactive = T/C below 125%.

Test system: L1210 leukemia ip in BDF1 mice, survival T/C
Experiment: NCI In Vivo Anticancer Drug Screen. Data for tumor model L1210 Leukemia (intraperitoneal) in B6D2F1 (BDF1) mice
Settings: endpoint: mean survival time, higher = longer survival
Summary of the method: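 Survival endpoint. Drug-treated group vs vehicle group, expressed as T divided by C. Tumor passaged by transplantation.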

[1] = dose: 100.0 mg/kg/injection, schedule: Q01DX009 (ip), vehicle: saline with Tween-80
[2] = dose: 100.0 mg/kg/injection, schedule: Q04DX003 (ip), vehicle: saline with Tween-80
[3] = dose: 200.0 mg/kg/injection, schedule: Q01DX009 (ip), vehicle: saline with Tween-80
[4] = dose: 200.0 mg/kg/injection, schedule: Q04DX003 (ip), vehicle: saline with Tween-80
[5] = dose: 400.0 mg/kg/injection, schedule: Q01DX009 (ip), vehicle: saline with Tween-80
[6] = dose: 400.0 mg/kg/injection, schedule: Q04DX003 (ip), vehicle: saline with Tween-80
[7] = dose: 50.0 mg/kg/injection, schedule: Q04DX003 (ip), vehicle: saline with Tween-80
[8] = dose: 12.5 mg/kg/injection, schedule: Q04DX003 (ip), vehicle: saline
[9] = dose: 25.0 mg/kg/injection, schedule: Q04DX003 (ip), vehicle: saline
[10] = dose: 50.0 mg/kg/injection, schedule: Q01DX009 (ip), vehicle: saline with Tween-80
[11] = dose: 100.0 mg/kg/injection, schedule: Q01DX001 (ip), vehicle: other
[12] = dose: 100.0 mg/kg/injection, schedule: Q04DX003 (ip), vehicle: Klucel (hydroxypropylcellulose) (HPC)
[13] = dose: 200.0 mg/kg/injection, schedule: Q01DX001 (ip), vehicle: other
[14] = dose: 200.0 mg/kg/injection, schedule: Q04DX003 (ip), vehicle: Klucel (hydroxypropylcellulose) (HPC)
[15] = dose: 400.0 mg/kg/injection, schedule: Q01DX001 (ip), vehicle: other
[16] = dose: 400.0 mg/kg/injection, schedule: Q04DX003 (ip), vehicle: Klucel (hydroxypropylcellulose) (HPC)
[17] = dose: 100.0 mg/kg/injection, schedule: Q04DX002 (ip), vehicle: Klucel (hydroxypropylcellulose) (HPC)
[18] = dose: 200.0 mg/kg/injection, schedule: Q04DX002 (ip), vehicle: Klucel (hydroxypropylcellulose) (HPC)
[19] = dose: 400.0 mg/kg/injection, schedule: Q04DX002 (ip), vehicle: Klucel (hydroxypropylcellulose) (HPC)
[20] = dose: 100.0 mg/kg/injection, schedule: Q04DX003 (ip), vehicle: saline
[21] = dose: 200.0 mg/kg/injection, schedule: Q04DX003 (ip), vehicle: saline
[22] = dose: 400.0 mg/kg/injection, schedule: Q04DX003 (ip), vehicle: saline

Measured: T/C

O=C(/C=C/c1ccccc1)c1cccc(Br)c1
inactive: [1] 106 % of control | [2] 97 % of control | [3] 91 % of control | [4] 96 % of control | [5] 96 % of control | [6] 96 % of control

Cc1c(Cl)cccc1NC(=O)Nc1nccs1
inactive: [7] 103 % of control | [1] 101 % of control and 104 % of control | dose: 100.0 mg/kg/injection, schedule: Q04DX002 (ip), vehicle: saline with Tween-80 100 % of control and 103 % of control | [2] 101 % of control | [3] 100 % of control | dose: 200.0 mg/kg/injection, schedule: Q04DX002 (ip), vehicle: saline with Tween-80 95 % of control and 96 % of control | [4] 114 % of control | dose: 400.0 mg/kg/injection, schedule: Q04DX002 (ip), vehicle: saline with Tween-80 109 % of control

Cc1cc(CCCC(=O)O)c(C)s1
inactive: [2] 101 % of control | [4] 104 % of control | [6] 101 % of control

CC[N+](C)(CC)CCCOC(=O)C(c1ccccc1)c1ccccc1
inactive: dose: 6.25 mg/kg/injection, schedule: Q04DX003 (ip), vehicle: saline 94 % of control | [8] 96 % of control | [9] 96 % of control

CC(/C=N/N(C)C(=N)N)=N\N(C)C(=N)N
inactive: dose: 15.0 mg/kg/injection, schedule: Q01DX Z (ip), vehicle: saline 88 % of control | dose: 30.0 mg/kg/injection, schedule: Q01DX Z (ip), vehicle: saline 103 % of control | dose: 60.0 mg/kg/injection, schedule: Q01DX Z (ip), vehicle: saline 98 % of control | dose: 120.0 mg/kg/injection, schedule: Q01DX Z (ip), vehicle: saline 102 % of control | dose: 120.0 mg/kg/injection, schedule: Q01DX Z (oral), vehicle: saline 103 % of control | dose: 240.0 mg/kg/injection, schedule: Q01DX Z (oral), vehicle: saline 97 % of control | dose: 480.0 mg/kg/injection, schedule: Q01DX Z (oral), vehicle: saline 106 % of control | dose: 960.0 mg/kg/injection, schedule: Q01DX Z (oral), vehicle: saline 113 % of control

Nc1c(I)cc(C(=O)O)c(O)c1I
inactive: [10] 97 % of control | [1] 94 % of control | [2] 94 % of control | [3] 94 % of control | [4] 98 % of control

CCOC(CN=Cc1cc(C)c2[nH]c3ccc(OC)cc3c2c1C)OCC
inactive: [11] 96 % of control | [12] 98 % of control | [13] 102 % of control | [14] 96 % of control | [15] 98 % of control | [16] 96 % of control

O/N=C1\CC(c2ccccc2)(c2ccccc2)c2cc(-c3ccccc3)c(-c3ccccc3)cc21
inactive: [10] 97 % of control | [1] 104 % of control | [3] 97 % of control

CCOC(=O)c1c(NC(=O)CCl)ssc1=S
inactive: [10] 103 % of control | [2] 92 % of control | [4] 91 % of control

Cc1nc2ccccc2cc1CCl
inactive: dose: 75.0 mg/kg/injection, schedule: Q01DX001 (ip), vehicle: acetone 88 % of control | dose: 150.0 mg/kg/injection, schedule: Q01DX001 (ip), vehicle: acetone 88 % of control

O=S(=O)(O)c1cccc2cccc(N=Nc3ccc(O)cc3)c12
inactive: [11] 94 % of control | [13] 103 % of control | [15] 94 % of control

Nc1cc(Cl)c2cccnc2c1O
inactive: [7] 88 % of control | dose: 75.0 mg/kg/injection, schedule: Q01DX001 (ip), vehicle: saline 98 % of control | [2] 100 % of control | dose: 150.0 mg/kg/injection, schedule: Q01DX001 (ip), vehicle: saline 96 % of control

CC(=O)NO
inactive: dose: 100.0 mg/kg/injection, schedule: Q04DX002 (ip), vehicle: saline 102 % of control | dose: 200.0 mg/kg/injection, schedule: Q04DX002 (ip), vehicle: saline 112 % of control | dose: 400.0 mg/kg/injection, schedule: Q04DX002 (ip), vehicle: saline 108 % of control

O=C(CN1CCCCC1)c1ccc2oc3ccccc3c2c1
inactive: [12] 96 % of control | [14] 96 % of control | [16] 87 % of control

CN(C)CCCNc1c2ccccc2nc2cccc([N+](=O)[O-])c12
inactive: dose: 0.2 mg/kg/injection, schedule: Q04DX003 (ip), vehicle: saline 100 % of control | dose: 0.3 mg/kg/injection, schedule: Q04DX003 (ip), vehicle: saline 94 % of control | dose: 0.5 mg/kg/injection, schedule: Q04DX003 (ip), vehicle: saline 108 % of control

CCCNC(=O)Nc1ccc(S(N)(=O)=O)cc1
inactive: [17] 97 % of control | [18] 97 % of control | [19] 87 % of control

COC(=O)C1=C2Nc3ccccc3C23CCN2CC4(CC5CC67CCOC6CCN6CCC8(c9cccc(OC)c9N(C4)C58O)C67)C4OCCC4(C1)C23 (configuration not stated)
inactive: [14] 88 % of control | [16] 93 % of control

c1ccc(C(c2ccccc2)c2ccccn2)cc1
inactive: dose: 50.0 mg/kg/injection, schedule: Q04DX002 (ip), vehicle: other 95 % of control | [17] 98 % of control | dose: 100.0 mg/kg/injection, schedule: Q04DX002 (ip), vehicle: other 95 % of control | dose: 100.0 mg/kg/injection, schedule: Q04DX003 (ip), vehicle: other 103 % of control | [18] 102 % of control | dose: 200.0 mg/kg/injection, schedule: Q04DX002 (ip), vehicle: other 95 % of control | dose: 200.0 mg/kg/injection, schedule: Q04DX003 (ip), vehicle: other 117 % of control | [19] 106 % of control | dose: 400.0 mg/kg/injection, schedule: Q04DX003 (ip), vehicle: other 111 % of control

COc1cc(O)c(C(=O)O)c(OC)c1
inactive: dose: 100.0 mg/kg/injection, schedule: Q01DX009 (ip), vehicle: other 103 % of control | [20] 104 % of control | dose: 200.0 mg/kg/injection, schedule: Q01DX009 (ip), vehicle: other 103 % of control | [21] 102 % of control | dose: 400.0 mg/kg/injection, schedule: Q01DX009 (ip), vehicle: other 101 % of control | [22] 98 % of control

C[N+](C)(C)C1CS(=O)C1 (configuration not stated)
inactive: [8] 96 % of control | [9] 112 % of control | dose: 50.0 mg/kg/injection, schedule: Q04DX003 (ip), vehicle: saline 87 % of control

Cn1c(=O)c2c(ncn2CCO)n(C)c1=O (tested in a mixture with another compound)
inactive: [1] 89 % of control | [20] 103 % of control | [3] 94 % of control | [21] 97 % of control | [5] 87 % of control | [22] 108 % of control
